Literature values as cited in US9949928B2, “Biodegradable copolymers, systems including the copolymers, and methods of forming and using same” (The Regents of the University of Colorado, a body corporate, priority 2013, dated 2018).

Details: cited from earlier work

CC1(C)O[C@@H]2C[C@H]3[C@@H]4CCC5=CC(=O)C=C[C@]5(C)[C@@]4(F)[C@@H](O)C[C@]3(C)[C@]2(C(=O)CO)O1 [triamcinolone acetonide]
log P: 1.16
